Assays:
[1] = pentanal release rate into the ambient air from compositions; type: physicochemical; settings: release of 50% of the initial pentanal amount into the ambient air
Source text: The inventors further calculated pentanal release rate into the ambient air from various compositions of the invention and compared the release rate to neat pentanal (liquid), as a negative control. Table 1 presents the time period required for release of 50% of the initial pentanal amount.

[2] = system: Alternaria alternata; assay: Petri dish with PDA inoculated with fungi spores exposed to pentanal vapors; type: cell-based; settings: pentanal vapors about 18 ppm; vs untreated plates
Source text: (§1) FIGS. 1A-1C are images representing inhibition of various plant pathogens Alternaria alternata (1A), Botrytis cinerea (1B), and Penicillium expansum (1C) by pentanal vapors at a concentration of 18 ppm. The inventors tested anti-fungal efficiency of pentanal vapors by exposing various fruits pathogens (e.g., Alternaria, Botrytis, and Penicillium species) to pentanal vapors at a concentration of about 18 ppm. Fruit (in vivo) or Petri dish with PDA (in vitro) inoculated with fungi spores (10^3-10^6 spores/ml) were exposed to pentanal vapors at concentrations of 10-100 ppm for 24 hr. after which the samples were aired and incubated until the pathogens developed in the untreated samples which served as control. The results of this experiment are represented in FIG. 1.

[3] = system: Botrytis cinerea; assay: as above; type: cell-based; settings: pentanal vapors about 18 ppm; vs untreated plates
Source text: as §1

[4] = system: Penicillium expansum; assay: as above; type: cell-based; settings: pentanal vapors about 18 ppm; vs untreated plates
Source text: as §1

[5] = system: pathogen related decay (spoilage) of fruits (pears, strawberries and mandarins); assay: decay of fruits exposed to pentanal and stored; type: in vivo; settings: 10 to 30 ppm pentanal; stored in a cold room and/or at 20° C.
Method: Furthermore, various fruits (e.g. pears, strawberries and mandarins) have been exposed to between 10 and 30 ppm of pentanal (e.g. in a form of vapors, or by contacting thereof with an appropriate amount of any one of the composition of the invention). Upon exposure, the treated fruits have been stored for different time periods (in a cold room and/or at 20° C.). Subsequently, the decay of treated fruits has been examined and compared to untreated fruits.

[6] = system: Penicillium expansum; assay: electron microscopy of mycelium and spores treated with pentanal; type: cell-based; settings: pentanal treated vs untreated
Method: FIGS. 2A-2C are micrographs presenting the effect of pentanal vapors (lower panel) on the mycelium (2A), conidia (2B), and spores (2C) of Penicillium expansum, as compared to untreated counterparts (upper panel). White arrows represent damage of Penicillium expansum upon exposure to pentanal vapors. Mycelium and spores of Penicillium expansum treated and untreated with pentanal were analyzed using electronic microscope. Untreated mycelium and the spores of Penicillium expansum developed normally (FIG. 2, upper panel) while the Pentanal treated samples were impaired, the round structure of the mycelium was altered and along the mycelium damaged sites were observed (FIG. 2A). The conjugation sites of the spores in conidiophore were also damaged (FIG. 2B), and ruptures were visible on the spores' surface (FIG. 2C).

[7] = system: Botrytis cinerea; assay: rot development on inoculated pears after cold storage; type: in vivo; settings: pentanal vapors 18 ppm; 2 months of cold storage (0° C.)
Method: (§2) FIGS. 3A-3B are bar graphs representing the development of rots (in mm) on pears that were inoculated with Penicillium expansum (3A) and Botrytis cinera (3B) spores. Pears were inoculated with different concentrations of Penicillium expansum spores: 10^3 spores (A); 10^4 spores (B); 10^5 spores (C). The diameter of rots (in mm) was assessed after 2 months of cold storage (at 0° C.). The graphs represent untreated pears versus pears treated by pentanal vapors (18 ppm).
(§3) The decay was measured after 2 months of cold storage (0° C.).

[8] = system: Penicillium expansum; assay: as above; type: in vivo; settings: pentanal vapors 18 ppm; 10^3-10^5 spores; 2 months of cold storage (0° C.)
Method: as §2, §3

[9] = system: Penicillium expansum and/or Botrytis cinerea; assay: storage shelf-life of inoculated fruit and vegetables exposed to pentanal vapors; type: in vivo; settings: strawberries
Source text: Furthermore, the inventors tested the storage shelf-life of various inoculated fruit and vegetables species, such as: apples, pears, strawberries, lichi, cucumbers, citrus fruits, grapes under similar storage conditions upon exposure thereof to pentanal vapors. The fruits have been inoculated with Penicillium expansum and/or Botrytis cinerea spores and exposed to pentanal vapors at a concentration ranging between 30 and 100 ppm during the cold storage. […] The exact preservative effective amount of pentanal vapors varies dependent on the specific fruit specie, for example strawberries require higher concentration of pentanal, about 80-100 ppm.

[10] = system: Penicillium expansum spores; assay: effect of different volatiles on viability of spores (CFU); type: cell-based; settings: 0.9, 1.8 or 18 μL/L
Method: FIGS. 4A-4B are bar graphs representing antifungal activity of different VOCs. FIG. 4A represents the effect of Butyl acetate (B) Hexyl acetate (H), Isoamyl acetate (I), Trans-2-Hexanal (T), and Pentanal (P) and Control (C) at the concentrations of 1.8 μL/L or 18 μL/L on Penicillium expansum spores (CFU). Different letters represent significant differences between treatments (p<0.05). A-C-1.8 μL/L, a-c-18 μL/L 1.8. FIG. 4B represents the effect of different volatiles Hexyl acetate (H), Trans-2-Hexanal (T), Pentanal (P), Hexanal (He) and Control (C) at the concentrations of 0.9 μL/L, 1.8 μL/L or 18 μL/L on Penicillium expansum spores (CFU). Different letters represent significant differences between treatments (p<0.05). A-C-1.8 μL/L, a-c-18 μL/L 1.8.
The inventors additionally examined the effect of different volatiles on the viability of Penicillium expansum spores. The volatiles tested were: Butyl acetate, Hexyl acetate, Isoamyl acetate, […] and they were compared to Pentanal at two different concentrations (1.8 μL/L or 18 μL/L). Furthermore, the inventors examined lower concentration (0.9 μL/L) for the following VOCs hexanal, trans-hexenal, and hexyl acetate on Penicillium expansum spores (CFU).

[11] = system: Penicillium expansum spores; assay: spores incubated on PDA plates, then exposed to pentanal vapors for 24 hr; type: cell-based
Method: The effect of incubation period (hours) of Penicillium expansum spores on PDA plates followed by exposure to pentanal vapors (1.8 ppm, or 18 ppm) for 24 hr was examined.

Time (min) until 50% release [1]: 5 min
Structure (SMILES): CCCCC=O [Pentanal]
fungal growth in petri dish [2]: completely prevented fungal growth | fungal growth in petri dish [3]: completely prevented fungal growth | fungal growth in petri dish [4]: completely prevented fungal growth | decay of treated fruits compared to untreated fruits [5]: prevention pathogen related decay (spoilage) | damage to mycelium, conidiophore and spores (electron microscope) [6]: physical damage | decay development in inoculated pears [7]: significantly delayed decay development | decay development in inoculated pears [8]: significantly delayed decay development | shelf-life of inoculated fruits and vegetables vs non-treated controls ([9]; pentanal vapors 30 to 100 ppm during cold storage, apples, pears, lichi, cucumbers, citrus fruits, grapes): significantly prolong the shelf-life | preservative effective amount of pentanal vapors [9]: 80-100 ppm | anti-fungal activity (CFU) compared to other VOCs [10]: significantly enhanced anti-fungal activity | fungal colonies 6 days after exposure ([11]; pentanal vapors 1.8 ppm for 24 hr): no fungal colonies were detected | fungal colonies 6 days after exposure ([11]; pentanal vapors 18 ppm for 24 hr): no fungal colonies were detected

— patent US20250194593A1, “PESTICIDAL COMPOSITIONS COMPRISING PENTANAL AND USES THEREOF” (MIGAL GALILEE RESEARCH INSTITUTE LTD., priority 2022, published 2025)
